From patent publication US8017612B2, “Piperazine compound and use thereof as a HCV polymerase inhibitor” (priority 2006, dated 2011)
Structures can show the parent of a compound that is named as a salt.

Legend:
[1] = target: T1, HCV polymerase (NS5B) type 1a (Hepatitis C virus genotype 1a, UniProt P26664); assay: Assay of enzyme (HCV polymerase) inhibitory activity, type 1a enzyme; assay type: biochemical, HCV type 1a (cloned from the blood of patients); conditions: HCV polymerase inhibitory activity (IC50), 1a, type 1a enzyme 1.5 μg/ml, 25° C., 60 min
T1 construct: made in house; host or cells: Escherichia coli (by the 'similar method' of the 1b enzyme)
Procedure, shortened: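 Reactions ran 60 min at 25° C in 20 mM Tris-HCl pH 7.5, 5 mM MgCl2, 50 mM NaCl, holding genotype 1a NS5B (1.5 μg/ml, Δ47 C-terminus, 6His), substrate RNA 5 μg/ml, UTP 2 μM with tritiated UTP and other NTPs 50 μM. IC50 derived from incorporated radiolabel in filter-trapped RNA relative to uninhibited reaction.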

[2] = target: T2, HCV polymerase (NS5B) type 1b (Hepatitis C virus genotype 1b, UniProt P26663); assay: Assay of enzyme (HCV polymerase) inhibitory activity, type 1b enzyme; assay type: biochemical, HCV BK strain (type 1b); conditions: HCV polymerase inhibitory activity (IC50), 1b, type 1b enzyme 0.5 μg/ml, 25° C., 60 min
T2 construct: a region encoding NS5B (J Virol 1991 March, 65(3), 1105-13, 544 amino acids after deletion of 47 amino acids on the C-terminal); 6xHis (C); made in house; host or cells: Escherichia coli
Procedure, shortened: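 IC50 derived from [3H]UTP incorporation into TCA-insoluble RNA, compared with and without test compound. Reaction (25 °C, 60 min, Tris pH 7.5, 5 mM MgCl2): E. coli-expressed 1b NS5B Δ47 with His tag at 0.5 μg/ml, 5 μg/ml run-off substrate RNA, ATP/GTP/CTP 50 μM, UTP 2 μM.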

SMILES: CC(=O)N1CCN(S(=O)(=O)c2ccc(C(C)C)cc2)C(C(=O)NCCCc2ccccc2)C1 (stereo not shown) [Example 145, 4-acetyl-1-(4-isopropyl-benzenesulfonyl)-piperazine-2-carboxylic acid (3-phenyl-propyl)-amide]
- IC50 [1]: > 1 µM
- IC50 [2]: > 1 µM

SMILES: CC(C)c1ccc(CNC(=O)[C@H]2CN(CC(N)=O)CCN2S(=O)(=O)c2ccc(C(F)(F)F)cc2)cc1 [Example 146, (R)-4-carbamoylmethyl-1-(4-trifluoromethyl-benzenesulfonyl)-piperazine-2-carboxylic acid 4-isopropyl-benzylamide]
- IC50 [1]: > 1 µM
- IC50 [2]: 0.1 to 1 µM

SMILES: CC(C)c1ccc(CNC(=O)[C@H]2CN(C3CC(=O)NC3=O)CCN2S(=O)(=O)c2ccc(C(F)(F)F)cc2)cc1 (stereo partly drawn) [Example 147, (R)-4-(2,5-dioxo-pyrrolidin-3-yl)-1-(4-trifluoromethyl-benzenesulfonyl)-piperazine-2-carboxylic acid 4-isopropyl-benzylamide]
- IC50 [1]: > 1 µM
- IC50 [2]: 0.1 to 1 µM

SMILES: CC(C)c1ccc(CNC(=O)[C@H]2CN(C3=C(c4ccccc4)C(=O)NC3=O)CCN2S(=O)(=O)c2ccc(C(F)(F)F)cc2)cc1 [Example 148, (R)-4-(2,5-dioxo-4-phenyl-2,5-dihydro-1H-pyrrol-3-yl)-1-(4-trifluoromethyl-benzenesulfonyl)-piperazine-2-carboxylic acid 4-isopropyl-benzylamide]
- IC50 [1]: > 1 µM
- IC50 [2]: > 1 µM

SMILES: CC(=O)N1CCN(S(=O)(=O)c2ccc(C(C)C)cc2)[C@@H](C(=O)NCCc2ccccc2Cl)C1 [Example 149, (R)-4-acetyl-1-(4-isopropyl-benzenesulfonyl)-piperazine-2-carboxylic acid [2-(2-chloro-phenyl)-ethyl]-amide]
- IC50 [1]: > 1 µM
- IC50 [2]: > 1 µM

SMILES: CC(=O)N1CCN(S(=O)(=O)c2ccc(C(C)C)cc2)[C@@H](C(=O)NCCc2cccc(Cl)c2)C1 [Example 150, (R)-4-acetyl-1-(4-isopropyl-benzenesulfonyl)-piperazine-2-carboxylic acid [2-(3-chloro-phenyl)-ethyl]-amide]
- IC50 [1]: > 1 µM
- IC50 [2]: > 1 µM

SMILES: CC(=O)N1CCN(S(=O)(=O)c2ccc(C(C)C)cc2)C(C(=O)NCc2ccc(C(F)(F)F)nc2)C1 (stereo not shown) [Example 151, 4-acetyl-1-(4-isopropyl-benzenesulfonyl)-piperazine-2-carboxylic acid (6-trifluoromethyl-pyridin-3-ylmethyl)-amide]
- IC50 [1]: > 1 µM
- IC50 [2]: > 1 µM

SMILES: CC(=O)N1CCN(S(=O)(=O)c2ccc(C(C)C)cc2)C(C(=O)NCc2ccccn2)C1 (stereo not shown) [Example 152, 4-acetyl-1-(4-isopropyl-benzenesulfonyl)-piperazine-2-carboxylic acid (pyridin-2-ylmethyl)-amide]
- IC50 [1]: > 1 µM
- IC50 [2]: > 1 µM

SMILES: CN(C)c1ccc(CNC(=O)C2CN(C(=O)Cc3ccccn3)CCN2S(=O)(=O)c2ccc(I)cc2)cc1 (stereo not shown) [Example 153, 1-(4-iodo-benzenesulfonyl)-4-(2-pyridin-2-yl-acetyl)-piperazine-2-carboxylic acid 4-dimethylamino-benzylamide]
- IC50 [1]: > 1 µM
- IC50 [2]: > 1 µM

SMILES: CN(C)c1ccc(CNC(=O)C2CN(C(=O)Cc3cccnc3)CCN2S(=O)(=O)c2ccc(I)cc2)cc1 (stereo not shown) [Example 154, 1-(4-iodo-benzenesulfonyl)-4-(2-pyridin-3-yl-acetyl)-piperazine-2-carboxylic acid 4-dimethylamino-benzylamide]
- IC50 [1]: 0.1 to 1 µM
- IC50 [2]: 0.1 to 1 µM

SMILES: CC(C)c1ccc(S(=O)(=O)N2CCN(c3nc4c(s3)Cc3ccccc3-4)CC2C(=O)NCc2ccc(C(F)(F)F)cc2)cc1 (stereo not shown) [Example 155, 4-(8H-indeno[1,2-d]thiazol-2-yl)-1-(4-isopropyl-benzenesulfonyl)-piperazine-2-carboxylic acid 4-trifluoromethyl-benzylamide]
- IC50 [1]: > 1 µM
- IC50 [2]: > 1 µM

SMILES: CC(C)c1ccc(S(=O)(=O)N2CCN(c3nc4c(s3)CCCC4)CC2C(=O)NCc2ccc(C(F)(F)F)cc2)cc1 (stereo not shown) [Example 156, 1-(4-isopropyl-benzenesulfonyl)-4-(4,5,6,7-tetrahydro-benzothiazol-2-yl)-piperazine-2-carboxylic acid 4-trifluoromethyl-benzylamide]
- IC50 [1]: > 1 µM
- IC50 [2]: > 1 µM

SMILES: CN(C)c1ccc(CNC(=O)[C@H]2CN(C(=O)CN)CCN2S(=O)(=O)c2ccc(I)cc2)cc1 [Example 157, (R)-4-(2-amino-acetyl)-1-(4-iodo-benzenesulfonyl)-piperazine-2-carboxylic acid 4-dimethylamino-benzylamide hydrochloride]
- IC50 [1]: > 1 µM
- IC50 [2]: > 1 µM

SMILES: CN(C)c1ccc(CNC(=O)[C@H]2CN(C(=O)CN3CCCCC3)CCN2S(=O)(=O)c2ccc(I)cc2)cc1 [Example 158, (R)-1-(4-iodo-benzenesulfonyl)-4-(2-piperidin-1-yl-acetyl)-piperazine-2-carboxylic acid 4-dimethylamino-benzylamide]
- IC50 [1]: > 1 µM
- IC50 [2]: > 1 µM

SMILES: CN(C)c1ccc(CNC(=O)[C@H]2CN(C(=O)CN3CCCC3)CCN2S(=O)(=O)c2ccc(I)cc2)cc1 [Example 159, (R)-1-(4-iodo-benzenesulfonyl)-4-(2-pyrrolidin-1-yl-acetyl)-piperazine-2-carboxylic acid 4-dimethylamino-benzylamide]
- IC50 [1]: > 1 µM
- IC50 [2]: > 1 µM

SMILES: CN(C)c1ccc(CNC(=O)[C@H]2CN(C(=O)CN3CCOCC3)CCN2S(=O)(=O)c2ccc(I)cc2)cc1 [Example 160, (R)-1-(4-iodo-benzenesulfonyl)-4-(2-morpholin-4-yl-acetyl)-piperazine-2-carboxylic acid 4-dimethylamino-benzylamide]
- IC50 [1]: 0.1 to 1 µM
- IC50 [2]: 0.1 to 1 µM

SMILES: CC(=O)N1CCN(S(=O)(=O)c2ccc(Cl)cc2Cl)C(C(=O)NCc2ccc(C(F)(F)F)cc2)C1 (stereo not shown) [Example 161, 4-acetyl-1-(2,4-dichloro-benzenesulfonyl)-piperazine-2-carboxylic acid 4-trifluoromethyl-benzylamide]
- IC50 [1]: > 1 µM
- IC50 [2]: > 1 µM

SMILES: CCC(CC)c1ccc(S(=O)(=O)N2CCN(C(C)=O)CC2C(=O)NCc2ccc(C(F)(F)F)cc2)cc1 (stereo not shown) [Example 162, 4-acetyl-1-[4-(1-ethyl-propyl)-benzenesulfonyl]-piperazine-2-carboxylic acid 4-trifluoromethyl-benzylamide]
- IC50 [1]: > 1 µM
- IC50 [2]: > 1 µM

SMILES: CCC(CC)c1ccc(CNC(=O)C2CN(C(C)=O)CCN2S(=O)(=O)c2ccc(C(C)C)cc2)cc1 (stereo not shown) [Example 163, 4-acetyl-1-(4-isopropyl-benzenesulfonyl)-piperazine-2-carboxylic acid 4-(1-ethyl-propyl)-benzylamide]
- IC50 [1]: 0.1 to 1 µM
- IC50 [2]: 0.1 to 1 µM

SMILES: CC(=O)N1CCN(S(=O)(=O)c2ccc3ccccc3c2)C(C(=O)NCc2ccc(C(F)(F)F)cc2)C1 (stereo not shown) [Example 164, 4-acetyl-1-(naphthalene-2-sulfonyl)-piperazine-2-carboxylic acid 4-trifluoromethyl-benzylamide]
- IC50 [1]: > 1 µM
- IC50 [2]: > 1 µM

SMILES: CC(=O)N1CCN(S(=O)(=O)c2cccc(Br)c2)C(C(=O)NCc2ccc(C(F)(F)F)cc2)C1 (stereo not shown) [Example 165, 4-acetyl-1-(3-bromo-benzenesulfonyl)-piperazine-2-carboxylic acid 4-trifluoromethyl-benzylamide]
- IC50 [1]: > 1 µM
- IC50 [2]: > 1 µM

SMILES: COC(=O)CCc1ccc(S(=O)(=O)N2CCN(C(C)=O)CC2C(=O)NCc2ccc(C(F)(F)F)cc2)cc1 (stereo not shown) [Example 166, 3-{4-[4-acetyl-2-(4-trifluoromethyl-benzylcarbamoyl)-piperazine-1-sulfonyl]-phenyl}-propionic acid methyl ester]
- IC50 [1]: > 1 µM
- IC50 [2]: > 1 µM

SMILES: CC(=O)N1CCN(S(=O)(=O)c2ccc(C3CCCCC3)cc2)C(C(=O)NCc2ccc(C(F)(F)F)cc2)C1 (stereo not shown) [Example 167, 4-acetyl-1-(4-cyclohexyl-benzenesulfonyl)-piperazine-2-carboxylic acid 4-trifluoromethyl-benzylamide]
- IC50 [1]: > 1 µM
- IC50 [2]: > 1 µM

SMILES: CC(=O)N1CCN(S(=O)(=O)c2cccc(C(=O)O)c2)C(C(=O)NCc2ccc(C(F)(F)F)cc2)C1 (stereo not shown) [Example 168, 3-[4-acetyl-2-(4-trifluoromethyl-benzylcarbamoyl)-piperazine-1-sulfonyl]-benzoic acid]
- IC50 [1]: > 1 µM
- IC50 [2]: > 1 µM

SMILES: CC(=O)N1CCN(S(=O)(=O)c2ccc(C(C)C)cc2)[C@@H](C(=O)NCc2ccc(C(C)(C)CO)cc2)C1 [Example 169, (R)-4-acetyl-1-(4-isopropyl-benzenesulfonyl)-piperazine-2-carboxylic acid 4-(2-hydroxy-1,1-dimethyl-ethyl)-benzylamide]
- IC50 [1]: > 1 µM
- IC50 [2]: > 1 µM

SMILES: CCOC(=O)c1csc(N2CCN(S(=O)(=O)c3ccc(C(C)C)cc3)C(C(=O)NCc3ccc(C(F)(F)F)cc3)C2)n1 (stereo not shown) [Example 170, 2-[4-(4-isopropyl-benzenesulfonyl)-3-(4-trifluoromethyl-benzylcarbamoyl)-piperazin-1-yl]-thiazole-4-carboxylic acid ethyl ester]
- IC50 [1]: > 1 µM
- IC50 [2]: > 1 µM
